Assay [1] deals with T1, Muscarinic acetylcholine receptor M1 (Homo sapiens, UniProt P11229).
T1 sequence (P11229 whole entry): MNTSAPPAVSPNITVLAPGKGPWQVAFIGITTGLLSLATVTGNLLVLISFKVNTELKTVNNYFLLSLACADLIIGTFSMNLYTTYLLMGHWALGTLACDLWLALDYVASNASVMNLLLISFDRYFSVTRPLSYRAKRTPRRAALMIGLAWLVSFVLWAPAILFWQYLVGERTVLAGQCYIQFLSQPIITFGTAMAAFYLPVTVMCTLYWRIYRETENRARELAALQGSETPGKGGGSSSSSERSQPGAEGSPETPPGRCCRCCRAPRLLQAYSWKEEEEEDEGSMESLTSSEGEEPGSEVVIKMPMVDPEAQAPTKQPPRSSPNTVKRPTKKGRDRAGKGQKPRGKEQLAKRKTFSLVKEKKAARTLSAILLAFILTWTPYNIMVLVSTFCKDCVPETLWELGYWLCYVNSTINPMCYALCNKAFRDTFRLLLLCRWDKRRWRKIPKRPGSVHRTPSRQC
Format: functional, cell-based.

Assay [2] deals with T2, Gamma-aminobutyric acid receptor subunit alpha-1 (Rattus norvegicus, UniProt P62813).
T2 sequence (P62813 whole entry): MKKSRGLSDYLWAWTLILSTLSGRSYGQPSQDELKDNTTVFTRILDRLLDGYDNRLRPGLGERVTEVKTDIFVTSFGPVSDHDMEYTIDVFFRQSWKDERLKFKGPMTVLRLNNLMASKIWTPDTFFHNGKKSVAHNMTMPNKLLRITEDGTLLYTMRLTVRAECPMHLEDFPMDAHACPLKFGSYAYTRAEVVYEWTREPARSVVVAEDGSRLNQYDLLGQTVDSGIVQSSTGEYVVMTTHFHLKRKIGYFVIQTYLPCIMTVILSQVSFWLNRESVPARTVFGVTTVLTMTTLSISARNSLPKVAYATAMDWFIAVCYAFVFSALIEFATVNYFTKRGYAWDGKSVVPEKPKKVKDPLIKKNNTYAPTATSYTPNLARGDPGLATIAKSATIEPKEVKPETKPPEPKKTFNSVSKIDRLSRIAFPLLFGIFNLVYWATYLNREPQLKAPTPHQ
A further assay addresses T3, Androgen receptor (Homo sapiens, UniProt P10275).
T3 sequence (P10275 whole entry): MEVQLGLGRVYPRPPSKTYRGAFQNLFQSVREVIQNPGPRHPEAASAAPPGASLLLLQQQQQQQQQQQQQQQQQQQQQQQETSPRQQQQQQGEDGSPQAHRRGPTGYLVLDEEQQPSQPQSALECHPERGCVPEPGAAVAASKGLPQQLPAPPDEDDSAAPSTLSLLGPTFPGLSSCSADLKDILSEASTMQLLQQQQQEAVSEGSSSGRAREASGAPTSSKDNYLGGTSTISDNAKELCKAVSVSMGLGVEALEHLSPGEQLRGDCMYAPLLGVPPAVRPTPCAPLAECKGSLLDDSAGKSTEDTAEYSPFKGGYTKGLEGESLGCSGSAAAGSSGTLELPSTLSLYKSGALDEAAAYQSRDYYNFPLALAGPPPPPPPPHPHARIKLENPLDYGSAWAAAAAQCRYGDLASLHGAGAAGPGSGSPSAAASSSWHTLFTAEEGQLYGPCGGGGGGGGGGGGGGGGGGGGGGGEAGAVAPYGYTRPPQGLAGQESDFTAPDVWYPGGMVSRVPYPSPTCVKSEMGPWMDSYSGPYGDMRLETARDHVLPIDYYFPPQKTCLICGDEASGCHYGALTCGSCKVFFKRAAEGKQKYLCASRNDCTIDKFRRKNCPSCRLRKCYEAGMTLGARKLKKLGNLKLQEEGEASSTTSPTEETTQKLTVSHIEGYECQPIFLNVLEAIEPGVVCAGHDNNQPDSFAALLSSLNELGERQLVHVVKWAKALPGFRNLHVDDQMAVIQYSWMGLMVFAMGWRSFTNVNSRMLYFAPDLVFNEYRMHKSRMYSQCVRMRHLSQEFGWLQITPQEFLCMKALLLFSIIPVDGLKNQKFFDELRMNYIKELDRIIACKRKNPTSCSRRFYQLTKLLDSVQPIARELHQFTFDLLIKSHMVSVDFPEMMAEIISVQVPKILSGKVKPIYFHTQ

Assay [3] addresses Beta-1 adrenergic receptor (Homo sapiens, UniProt P08588). Format: functional.
Assay [4] deals with T4, Neuropeptide Y receptor type 1 (Homo sapiens, UniProt P25929).
T4 sequence (P25929 whole entry): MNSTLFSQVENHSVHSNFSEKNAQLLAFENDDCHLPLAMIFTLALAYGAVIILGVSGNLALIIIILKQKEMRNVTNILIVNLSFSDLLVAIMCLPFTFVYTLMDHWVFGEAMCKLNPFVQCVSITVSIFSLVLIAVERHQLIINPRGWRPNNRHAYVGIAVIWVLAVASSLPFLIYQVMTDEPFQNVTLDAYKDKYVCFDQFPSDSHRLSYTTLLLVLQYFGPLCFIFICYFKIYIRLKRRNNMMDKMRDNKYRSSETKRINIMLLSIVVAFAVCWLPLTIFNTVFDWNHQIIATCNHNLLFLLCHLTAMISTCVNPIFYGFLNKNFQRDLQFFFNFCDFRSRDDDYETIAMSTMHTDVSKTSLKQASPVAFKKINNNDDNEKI

In assay [5] the target is T2, Gamma-aminobutyric acid receptor subunit alpha-1. The source holds these as a separate data set.
For the next assay, the target named is Histamine H3 receptor (Homo sapiens, UniProt Q9Y5N1).
Sequence of Histamine H3 receptor (Q9Y5N1 whole entry): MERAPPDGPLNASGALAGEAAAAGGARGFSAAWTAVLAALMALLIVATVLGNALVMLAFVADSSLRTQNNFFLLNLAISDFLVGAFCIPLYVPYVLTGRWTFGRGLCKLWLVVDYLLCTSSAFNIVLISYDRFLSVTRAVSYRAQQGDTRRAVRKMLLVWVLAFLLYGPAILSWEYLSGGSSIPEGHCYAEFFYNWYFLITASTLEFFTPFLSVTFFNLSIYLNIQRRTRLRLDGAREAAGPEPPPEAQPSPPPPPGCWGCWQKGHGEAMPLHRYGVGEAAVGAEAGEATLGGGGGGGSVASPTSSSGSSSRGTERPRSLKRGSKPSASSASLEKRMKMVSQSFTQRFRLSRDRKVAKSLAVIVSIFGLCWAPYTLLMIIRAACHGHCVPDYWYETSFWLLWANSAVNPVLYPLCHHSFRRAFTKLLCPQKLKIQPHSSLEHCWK
A further assay has as its target Motilin receptor (Homo sapiens, UniProt O43193).
Assay [6] addresses T5, Alpha-2A adrenergic receptor (Homo sapiens, UniProt P08913).
T5 sequence (P08913 whole entry): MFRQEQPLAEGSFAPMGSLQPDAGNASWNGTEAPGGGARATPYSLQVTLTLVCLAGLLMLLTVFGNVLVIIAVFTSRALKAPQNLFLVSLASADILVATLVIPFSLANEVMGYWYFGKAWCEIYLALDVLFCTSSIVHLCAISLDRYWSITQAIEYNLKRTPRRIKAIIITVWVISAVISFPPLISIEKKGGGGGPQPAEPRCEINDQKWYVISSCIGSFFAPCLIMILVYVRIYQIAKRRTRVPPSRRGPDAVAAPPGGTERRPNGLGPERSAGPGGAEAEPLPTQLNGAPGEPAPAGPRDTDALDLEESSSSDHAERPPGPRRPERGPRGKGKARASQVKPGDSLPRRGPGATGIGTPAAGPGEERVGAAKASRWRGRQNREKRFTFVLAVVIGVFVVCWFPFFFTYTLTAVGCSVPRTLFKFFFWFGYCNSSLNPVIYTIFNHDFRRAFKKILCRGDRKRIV
Format: functional, cell-based.

The structures appear in SMILES notation.

One may read the AC50 as the midpoint of the concentration-response curve, whichever way the signal moves. A low value points to greater potency.
Note: assay procedure not described here.

Sequence of Beta-1 adrenergic receptor (P08588 whole entry): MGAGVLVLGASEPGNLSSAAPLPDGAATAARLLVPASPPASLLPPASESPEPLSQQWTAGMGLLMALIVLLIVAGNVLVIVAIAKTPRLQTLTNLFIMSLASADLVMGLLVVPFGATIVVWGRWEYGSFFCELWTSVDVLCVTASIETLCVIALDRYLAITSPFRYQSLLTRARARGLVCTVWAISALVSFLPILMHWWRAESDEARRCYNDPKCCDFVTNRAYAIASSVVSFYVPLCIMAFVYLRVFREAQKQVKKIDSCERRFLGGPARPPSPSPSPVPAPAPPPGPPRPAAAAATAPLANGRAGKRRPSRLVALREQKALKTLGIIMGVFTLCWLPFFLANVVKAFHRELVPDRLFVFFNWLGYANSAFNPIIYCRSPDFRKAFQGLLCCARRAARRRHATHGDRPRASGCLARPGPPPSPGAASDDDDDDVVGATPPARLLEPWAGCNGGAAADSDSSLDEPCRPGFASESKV
Sequence of Motilin receptor (O43193 whole entry): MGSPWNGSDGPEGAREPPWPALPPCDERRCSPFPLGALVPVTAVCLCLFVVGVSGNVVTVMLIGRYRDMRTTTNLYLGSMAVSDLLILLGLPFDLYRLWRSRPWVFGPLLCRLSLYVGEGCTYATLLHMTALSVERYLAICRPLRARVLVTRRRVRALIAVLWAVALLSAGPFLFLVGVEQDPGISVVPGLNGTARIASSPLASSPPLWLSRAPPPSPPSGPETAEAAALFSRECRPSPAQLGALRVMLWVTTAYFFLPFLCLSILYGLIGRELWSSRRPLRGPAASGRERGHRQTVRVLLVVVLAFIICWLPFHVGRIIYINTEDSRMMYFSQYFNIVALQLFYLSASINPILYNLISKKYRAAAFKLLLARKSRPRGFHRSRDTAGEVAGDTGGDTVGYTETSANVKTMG

With `C[C@H](N[C@@H](CCc1ccccc1)C(=O)O)C(=O)N1Cc2ccccc2C[C@H]1C(=O)O`, the AC50 (in assay [1]; in assay [2]; at Androgen receptor) was over 30 µM each time.
As for `O=C(O)[C@@H]1C[C@@H](O)CN1`, the AC50 (in [1]; in [2]; at Androgen receptor) was over 30 µM throughout.
For the compound `CC(=O)[C@]1(N)Cc2c(O)c3c(c(O)c2[C@@H](O[C@H]2C[C@H](O)[C@H](O)CO2)C1)C(=O)c1ccccc1C3=O` [AMRUBICIN], the figures for the AC50 (in assay [1]; in assay [2]; at Androgen receptor) were 18.4 µM, over 30 µM and over 30 µM, respectively.
`CC(=O)OC[C@H]1O[C@@H](n2ncc(=O)[nH]c2=O)[C@H](OC(C)=O)[C@@H]1OC(C)=O` [AZARIBINE]: the AC50 (in assay [2]; at Androgen receptor) was over 30 µM each time.
As for `O=C(/C=C/c1cccc(S(=O)(=O)Nc2ccccc2)c1)NO` [BELINOSTAT], the AC50 in [3] is over 10 µM; in assay [4] it was over 30 µM; in assay [5], over 10 µM; in assay [2], over 30 µM; on Histamine H3 receptor, over 10 µM; on Androgen receptor it was over 30 µM. For the same compound, the concentration at half-maximal activity (AC50) on Motilin receptor is over 10 µM.
As to `CC(C)(C)NC(=O)N[C@H](C(=O)N1C[C@H]2[C@@H]([C@H]1C(=O)NC(CC1CCC1)C(=O)C(N)=O)C2(C)C)C(C)(C)C` (stereo not given in full) [BOCEPREVIR], the AC50 (in [1]; in assay [2]; on Androgen receptor) was over 30 µM each time.
For the compound `N#Cc1ccc(Oc2ccc3c(c2)COB3O)cc1` [CRISABOROLE], the AC50 (in assay [1]; in [2]; on Androgen receptor) was over 30 µM throughout.
On to `C[C@@H]1C[C@H]2[C@@H]3C[C@H](F)C4=CC(=O)C=C[C@]4(C)[C@@]3(F)[C@@H](O)C[C@]2(C)[C@@]1(OC(=O)c1ccco1)C(=O)SCF` [FLUTICASONE FUROATE], for which the AC50 in [1] was over 30 µM; in assay [6], over 10 µM; in assay [3], over 10 µM; in [4] it was over 10 µM; in assay [5] it was over 30 µM; in assay [2], over 30 µM. Besides, the AC50 is 0.13 µM at Androgen receptor and over 10 µM on Motilin receptor.
As for `CN1CCCN(C(c2ccccc2)c2ccc(Cl)cc2)CC1` (stereo not given) [HOMOCHLORCYCLIZINE], the AC50 (in assay [1]; in assay [2]; at Androgen receptor) was over 30 µM throughout.
As to `O=C(CCC/C=C\C[C@@H]1[C@@H](CC[C@@H](O)CCc2ccccc2)[C@H](O)C[C@@H]1O)OCCCCO[N+](=O)[O-]` [LATANOPROSTENE BUNOD], the AC50 (in [1]; in assay [2]; on Androgen receptor) was over 30 µM throughout.
For `Cc1oc(=O)oc1COC(=O)[C@@H]1N2C(=O)[C@@H](NC(=O)[C@H](N)c3ccccc3)[C@H]2SC1(C)C` [LENAMPICILLIN], the AC50 (in assay [1]; in assay [2]; on Androgen receptor) was over 30 µM throughout.
With `COC(=O)C[C@](O)(CCCC(C)(C)O)C(=O)O[C@@H]1C(OC)=C[C@]23CCCN2CCc2cc4c(cc2[C@H]13)OCO4` [OMACETAXINE MEPESUCCINATE], the AC50 (in assay [1]; in assay [2]; on Androgen receptor) was over 30 µM in each case.
`C[C@@H]1C[C@H]2[C@@H]3C[C@H](F)C4=CC(=O)C=C[C@]4(C)[C@H]3[C@@H](O)C[C@]2(C)[C@@]1(O)C(=O)CO` [PARAMETHASONE]: the AC50 in [1] was over 30 µM; in assay [2], over 30 µM; on Androgen receptor, 3.48 µM.
As to `CCCn1cnc2c1c(=O)n(CCCCC(C)=O)c(=O)n2C` [PROPENTOFYLLINE], the AC50 (in assay [1]; in assay [2]; at Androgen receptor) was over 30 µM throughout.
Regarding `CC(OCCN1CCCCCC1)(c1ccccc1)c1ccc(Cl)cc1` (stereo not given) [SETASTINE], the AC50 (in assay [1]; on Androgen receptor) was over 30 µM throughout.
For `COc1cc(C)c2c(Oc3cccc(C(F)(F)F)c3)c(OC)cc(NC(C)CCCN)c2n1` (stereo not given) [TAFENOQUINE], the AC50 in [1] is over 3 µM; in [2], over 30 µM; at Androgen receptor it was over 30 µM.
Regarding `O=S1(=O)CCN(CN2CCS(=O)(=O)NC2)CN1` [TAUROLIDINE], the AC50 (in assay [6]; in assay [3]; in [5]; in assay [2]; at Androgen receptor) was over 30 µM each time.
On to `CCCSc1nc(N[C@@H]2C[C@H]2c2ccc(F)c(F)c2)c2nnn([C@@H]3C[C@H](OCCO)[C@@H](O)[C@H]3O)c2n1` [TICAGRELOR], for which the AC50 (in [1]; in [2]; on Androgen receptor) was over 30 µM in each case.
For `c1ccc2c(SC3=NCCN3)c[nH]c2c1` [TINAZOLINE], the AC50 (in assay [1]; on Androgen receptor) was over 30 µM in each case.

These data come from ChEMBL document CHEMBL5291721, “A preclinical secondary pharmacology resource illuminates target-adverse drug reaction associations of marketed drugs” (Nat Commun, 2023).
